One series has as its system A549/taxol. The series is described as follows: MTT antiproliferative assay, Taxol-resistant A549. Type of series: cell-based.
In another series the test system is A549/cisplatin. The series is described as follows: MTT antiproliferative assay, cisplatin-resistant A549. The conditions noted are these: Homo sapiens. Type of series: cell-based. Background: Tetrazolium dyes change colour on reduction, which living cells bring about.
A further series is described as follows: Water solubility by HPLC. The conditions noted are these: deionized water, stirred overnight, HPLC 290 nm; for solubility: thermodynamic from solid, read-out: S, water solubility. Type of series: physicochemical. The source says:
The physicochemical characteristics of compounds directly determine their potential drug-like properties. Assessing a compound’s physicochemical properties before performing in vivo evaluations can guide further studies and minimize the time and cost associated with drug discovery. Therefore, parallel to the in vivo study, these solubilities of these compounds in water were experimentally measured using high-performance liquid chromatography (HPLC). Based on the results of full wave scanning, 290 nm was chosen as the maximum absorption wavelength for HPLC detection.
(§1) A HPLC system with an ultraviolet (UV) detector was used to detect the solubility of the compounds. The optimal wavelength was 290 nm. Ethanol/water (85:15) was an efficient eluent at a flow rate of 0.5 mL/min. The compounds were stirred in deionized water overnight to maximize the retention of the compounds in solution. Then, the solutions were filtered and the supernatant was used as a fluid sample for HPLC detection. The permeability (Pe) of some of the compounds was tested with the help of a standard PAMPA (pION), as previously reported. PAMPA was performed on a PAMPA Explorer instrument (pION, Inc., Woburn, MA) with the PAMPA Explorer command software (Version 3.7.4.1). The compounds were diluted to 10 mM with the system solution buffer (pH 7.4). Then, 150 μL of the diluted compound solution was transferred to a UV plate, and the UV spectrum was collected and used as a reference. Then, paint the membrane with 5 μL of gastrointestinal tract (GIT) lipid. The acceptor chamber was filled with 200 μL of acceptor solution buffer, and the donor chamber was filled with 200 μL of diluted compound solution. The PAMPA sandwich was assembled and left at 25 °C for 4 h. The UV spectra (240–500 nm) from the donor and the acceptor were collected. The permeability coefficient was calculated with the PAMPA Explorer Command software (Version 3.7.4.1) based on the area under the curve (AUC) of the reference plate, the donor plate, and the acceptor plate. The permeability coefficient of the compound was tested for four times, and the data are shown as the average values. Ketoprofen (4.5×10^−6 cm/s) and propranolol (112.8×10^−6 cm/s) were used as the standards in this assay.

The next series concerns A549. The series is described as follows: MTT antiproliferative assay, A549. The conditions noted are these: Homo sapiens, A549, 72 h.
The test system of the next series is HepG2. The series is described as follows: MTT antiproliferative assay, HepG2. The conditions noted are these: read-out: IC50 HepG2.
For the next series, the system named is HCT116. The series is described as follows: MTT antiproliferative assay, HCT116. As to conditions: read-out: IC50 HCT116.
A further series deals with MDA-MB-231. The series is described as follows: MTT antiproliferative assay, MDA-MB-231. As to conditions: Homo sapiens, MDA-MB-231, 72 h.
Series [1] concerns HepG2, HCT116, MDA-MB-231 and A549 cells. The series is described as follows: MTT antiproliferative assay, cell line panel.
Procedure: (§2) The inhibition of tumour cell growth was measured by a modified tetrazolium (MTT) salt assay, as previously described[39]. Cells were cultured in a 96-well plate and treated with culture medium alone or different concentrations of the compounds. The cells were incubated for 72 h, and then, the MTT assay reagent was added. After a 4 h incubation, the formazan product was quantitated at 570 nm. The IC50 values (the concentrations that gave rise to 50% inhibition of cell viability) were calculated using GraphPad Prism 6 using a variable slope (four parameters).
The next series has as its system HepG2 tumours. The series is described as follows: HepG2 hepatoblastoma xenograft in nude mice. The series is classed as in vivo. The conditions noted are these: control groups of the IV study, dose not given. Here is the method:
Given the in vitro anti-tumour cell activity of 8n, we continued to evaluate its in vivo effect in hepatoblastoma xenograft models using previously reported methods, and the water-soluble anti-cancer drug 5-fluorouracil (5-FU) was used as a positive control. After tumours were established, the mice were IV injected with 2.5, 5, 10 or 50 mg/kg 8n; the lead compound DDO-6101 and antitumour drug 5-FU were used as controls. All mice had normal weights and quality of life in in vivo tests. […] The in vivo activity of 8n was also evaluated after oral administration. […] This observation may be attributed to the improved physicochemical properties of 8n compared to those of DDO-6101, such as aqueous solubility and cell membrane permeability, which were provided by modification with the carbamate moiety.
Figure 7 (A) The tumour diameters were measured and used to calculate the tumour volumes. The HepG2 xenograft-bearing mice were intravenously injected with 2.5, 5, 10 and 50 mg/kg 8n for 20 days. (B) After 20 days, mice were sacrificed and the individual tumours were weighed. *p < 0.05, […]; Student’s t-test (n = 6). (C) The tumour diameters were measured and used to calculate the tumour volumes. The HepG2 xenograft-bearing mice were orally administered 50 mg/kg 8n, 50 mg/kg DDO-6101 or 10 mg/kg 5-FU for 20 days.
All studies were performed in compliance with the relevant guidelines and regulations. Tumours on female nude mice were established by injecting 1×10^7 HepG2 cells on the dorsal surface. After four weeks, tumours of approximately 150 mm^3 were cut into pieces that were 3 mm×3 mm×3 mm in size and were then implanted in the dorsal surface of other female nude mice. One week later, mice implanted with xenografts of 100 mm^3 were selected, randomized, and […] injected with 2.5, 5, or 10-mg/kg 8n or vehicle daily for another three weeks. The tumour dimensions were measured daily with vernier calipers, and the tumour volumes were calculated using the formula: volume = (width)^2 × length/2.

Series [2] is described as follows: Parallel artificial membrane permeability assay (PAMPA). The series is classed as in vitro ADME. As to conditions: PAMPA, different pH values (Fig. 5). On the procedure:
Permeability is another important property that reflects the ability of molecules to diffuse through cell membranes. The permeability coefficients were determined using a standard parallel artificial membrane permeability assay (PAMPA) on a PAMPA Explorer instrument (Pion, Inc., MA, USA)[34].
as §1, with “The compounds were diluted to 10 mM with the system solution buffer (pH 7.4).” left out
(In PAMPA a lipid-coated filter parts donor from acceptor wells.)

[3] abbreviates: MTT, 72 h; Taxol-resistant A549; read-out: IC50 A549/taxol.
The mark [4] stands for this setting: MTT, 72 h, read-out: IC50 A549/cisplatin.

Here are results for 8 compounds from paper PMC5073322, “Novel Natural Product-like Caged Xanthones Bearing a Carbamate Moiety Exhibit Antitumor Potency and Anti-Angiogenesis Activity In vivo” (Scientific Reports, 2016).

Values after ≈ are worked out from the molar mass of the structure shown. Where two headings read alike, the source gives them in different places.

Procedure for A549/cisplatin: as §2
Procedure for A549/taxol: as §2

Take `CC(=O)Oc1cccc2c1C(=O)C1=CC3CC4C(C)(C)OC(CC=C(C)C)(C3=O)C14O2` (stereo not shown) [Compound 1]: the IC50 in the series on A549/taxol (setting [3]) was 1620 ± 100 nM; in the series with A549/cisplatin (setting [4]) it was 1530 ± 200 nM; in the series with A549 (read-out: IC50 A549) it was 3000 ± 800 nM; with HepG2 (Homo sapiens, HepG2, 72 h), 1070 ± 90 nM; with HCT116 (Homo sapiens, HCT-116, 72 h), 1490 ± 170 nM; with MDA-MB-231 (read-out: IC50 MDA-MB-231), 970 ± 90 nM. In addition, the IC50 in series [1] (Homo sapiens, read-out: IC50 values, range over the cancer cell lines) was in the range of 970 to 1490 nM. In addition, the solubility in “Water solubility by HPLC” was determined as 20 µM (≈ 8.45 µg/mL).

Turning to `COc1cccc2c1C(=O)C1=CC3CC4C(C)(C)OC(CC=C(C)C)(C3=O)C14O2` (stereo not shown) [Compound 3], the solubility in “Water solubility by HPLC” came out at 10 µM (≈ 3.94 µg/mL). Also, the IC50 stood at 8550 ± 430 nM with HepG2 (Homo sapiens, HepG2, 72 h); 6100 ± 190 nM with HCT116 (Homo sapiens, HCT-116, 72 h); 1800 ± 60 nM with MDA-MB-231 (read-out: IC50 MDA-MB-231). Besides, the “fold less active than DDO-6101” value in [1] (three cancer cell lines) is 4–8 fold.

In the case of `O=c1[nH]cc(F)c(=O)[nH]1` [Compound 5-FU, 5-fluorouracil, reference compound], in the series with HepG2 tumours, the “inhibition of the tumour volume, control groups” value came to 50.95%.

For the compound `CCN(CC)C(=O)Oc1cccc2c1C(=O)C1=CC3CC4C(C)(C)OC(CC=C(C)C)(C3=O)C14O2` (stereo not shown) [Compound 8b], the IC50 is 680 ± 80 nM in the series with A549/taxol (setting [3]); 1460 ± 90 nM in the series on A549/cisplatin (setting [4]); 2860 ± 20 nM with A549 (read-out: IC50 A549); 1880 ± 140 nM with HepG2 (Homo sapiens, HepG2, 72 h); 2870 ± 70 nM with HCT116 (Homo sapiens, HCT-116, 72 h); 470 ± 70 nM with MDA-MB-231 (read-out: IC50 MDA-MB-231). In the series “Water solubility by HPLC”, the solubility came out at 30 µM (≈ 14.4 µg/mL). The “permeability relative to DDO-6101 and GA” value in series [2] is listed as “improved the permeability”.

For the compound `CC(C)=CCC12OC(C)(C)C3CC(C=C4C(=O)c5c(OC(=O)N6CCOCC6)cccc5OC431)C2=O` (stereo not shown) [Compound 8d], the IC50 in the series on A549/taxol (setting [3]) came to 530 ± 80 nM; in the series with A549/cisplatin (setting [4]), 1480 ± 250 nM; with A549 (read-out: IC50 A549), 9810 ± 170 nM; in the series on HepG2 (Homo sapiens, HepG2, 72 h), 2310 ± 180 nM; with HCT116 (Homo sapiens, HCT-116, 72 h), 710 ± 40 nM; with MDA-MB-231 (read-out: IC50 MDA-MB-231), 580 ± 40 nM. Besides, in the series “Water solubility by HPLC”, the solubility was determined as 40 µM (≈ 19.7 µg/mL). Further, in series [2], the “permeability relative to DDO-6101 and GA” value is “improved the permeability”.

Consider `CC(C)=CCC12OC(C)(C)C3CC(C=C4C(=O)c5c(OC(=O)N6CCSC6)cccc5OC431)C2=O` (stereo not shown) [Compound 8i], for which the IC50 in the series with A549/taxol (setting [3]) was found to be 820 ± 80 nM; in the series on A549/cisplatin (setting [4]), 1800 ± 100 nM; in the series with A549 (read-out: IC50 A549), 3380 ± 20 nM; with HepG2 (Homo sapiens, HepG2, 72 h) it was 1610 ± 180 nM; in the series on HCT116 (Homo sapiens, HCT-116, 72 h), 1080 ± 20 nM; in the series on MDA-MB-231 (read-out: IC50 MDA-MB-231), 1000 ± 100 nM. Besides, the solubility in “Water solubility by HPLC” was 20 µM (≈ 9.91 µg/mL). Moreover, the “permeability relative to DDO-6101 and GA” value in series [2] is recorded as “improved the permeability”.

As to `CC(C)=CCC12OC(C)(C)C3CC(C=C4C(=O)c5c(OC(=O)N6CCC(N7CCCCC7)CC6)cccc5OC431)C2=O` (stereo not shown) [Compound 8l], the “fold higher activity against the resistant A549 cell line than A549” value with A549/taxol (Taxol-resistant and cisplatin-resistant A549 versus A549) was 10–15 fold. Further, the IC50 in the series on A549/taxol (read-out: IC50 A549/taxol; MTT, 72 h; Taxol-resistant A549) turned out to be 610 ± 40 nM; in the series on A549/cisplatin (A549, 72 h, read-out: IC50 A549/cisplatin, MTT, 72 h) it was 980 ± 130 nM; in the series on A549 (read-out: IC50 A549, MTT, 72 h), 10000 ± 2100 nM; with HepG2 (MTT, 72 h), 340 ± 270 nM; in the series with HCT116 (MTT, 72 h), 2490 ± 330 nM; in the series with MDA-MB-231 (read-out: IC50 MDA-MB-231, MTT, 72 h), 880 ± 50 nM. The “S, water solubility” value in “Water solubility by HPLC” stood at 80 µM. For the same compound, in [2], the “permeability relative to DDO-6101 and GA” value is “improved the permeability”.

As for `CC(C)=CCC12OC(C)(C)C3CC(C=C4C(=O)c5c(O)cccc5OC431)C2=O` (stereo not shown) [DDO-6101, reference compound], the IC50 with A549/taxol (setting [3]) was found to be 460 ± 30 nM; in the series with A549/cisplatin (setting [4]) it was 2110 ± 100 nM; in the series on A549 (read-out: IC50 A549), 2590 ± 170 nM; with HepG2 (Homo sapiens, HepG2, 72 h), 1140 ± 90 nM; in the series with HCT116 (Homo sapiens, HCT-116, 72 h) it was 710 ± 100 nM; in the series on MDA-MB-231 (read-out: IC50 MDA-MB-231) it was 320 ± 90 nM. Further, the solubility in the series “Water solubility by HPLC” was less than 5 µM. For the same compound, the “inhibition of the tumour volume, control groups” value in the series on HepG2 tumours was 36.81%.

What is called solubility is how much of the substance goes into solution per volume.
